ChEMBL document CHEMBL1201862, “PubChem BioAssay data set” (2004)
“And” between values parts separate entries of the source, which are not always exact repeats. Equal entries are not always repeated.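 A five-concentration, 48-hour dose response in 96-well plates underlies each endpoint, interpolated linearly between surrounding concentrations. Here, GI50 denotes the concentration required for 50% inhibition of growth.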 The source made the active and inactive calls. Rule as the data show it: active = GI50 up to about 1.1 µM and inactive = higher.

What was measured:
Assay in all cases: NCI anticancer screen, dose series, 48 h
[1] = system: DLD-1
[2] = system: OVCAR-3
[3] = system: K562
[4] = system: NCI-H460
[5] = system: RPMI-8226
[6] = system: SNB-78
[7] = system: HOP-62
[8] = system: KM12
[9] = system: DMS-273
[10] = system: UACC-257
[11] = system: Hs-578T
[12] = system: BT-549
[13] = system: SK-MEL-28
[14] = system: SK-MEL-2
[15] = system: LOX IMVI
[16] = system: TK-10
[17] = system: HCT-15
[18] = system: SN12C
[19] = system: SNB-19
[20] = system: MOLT-4

## OC(CBr)C(O)C(O)C(O)CBr (configuration not stated)
[1]
  GI50: > 100 µM (inactive)
[2]
  GI50: > 55.1 µM (inactive)
[3]
  GI50: > 87.9 µM (inactive)
[4]
  GI50: 8.3 µM (inactive) and 10.7 µM (inactive)
[5]
  GI50: > 65.8 µM (inactive) and > 38.5 µM (inactive)
[6]
  GI50: > 100 µM (inactive)
[7]
  GI50: 28.1 µM (inactive) and 28.3 µM (inactive)
[8]
  GI50: > 100 µM (inactive) and > 60 µM (inactive)
[9]
  GI50: 26.6 µM (inactive)
[10]
  GI50: > 69 µM (inactive) and > 64 µM (inactive)
[11]
  GI50: > 100 µM (inactive)
[12]
  GI50: 28.2 µM (inactive)
[13]
  GI50: > 92.7 µM (inactive)
[14]
  GI50: > 100 µM (inactive) and > 66.2 µM (inactive)
[15]
  GI50: 51.6 µM (inactive) and 40.9 µM (inactive)
[16]
  GI50: > 100 µM (inactive)

## O=C(NCCCOC(=O)CCCCCCCCC(=O)OCCCNC(=O)NC(=O)c1c[nH]c(=O)[nH]c1=O)NC(=O)c1c[nH]c(=O)[nH]c1=O
[17]
  GI50: > 100 µM
[18]
  GI50: > 100 µM (inactive)
[1]
  GI50: > 100 µM (inactive)
[2]
  GI50: > 100 µM (inactive)
[3]
  GI50: > 100 µM (inactive)
[4]
  GI50: > 100 µM (inactive)
[5]
  GI50: > 100 µM (inactive)
[6]
  GI50: > 100 µM (inactive)
[7]
  GI50: > 100 µM (inactive)
[8]
  GI50: > 100 µM (inactive)
[9]
  GI50: > 100 µM (inactive)
[10]
  GI50: > 100 µM (inactive)
[19]
  GI50: > 100 µM (inactive)
[13]
  GI50: > 100 µM (inactive)
[14]
  GI50: > 100 µM (inactive)
[20]
  GI50: > 100 µM (inactive)
[15]
  GI50: > 100 µM (inactive)
[16]
  GI50: > 100 µM (inactive)

## FC(F)(F)C1(Cl)C(Cl)(c2ccccc2)C1(Cl)c1ccccc1 (configuration not stated)
[17]
  GI50: 13.7 µM
[18]
  GI50: 15.2 µM (inactive)
[1]
  GI50: 15.4 µM (inactive)
[2]
  GI50: 14.9 µM (inactive)
[3]
  GI50: 33.7 µM (inactive)
[4]
  GI50: 15.8 µM (inactive)
[5]
  GI50: 27.7 µM (inactive)
[6]
  GI50: 17.8 µM (inactive)
[7]
  GI50: 16.3 µM (inactive)
[8]
  GI50: 15.6 µM (inactive)
[9]
  GI50: 14.9 µM (inactive)
[10]
  GI50: 14.6 µM (inactive)
[19]
  GI50: 18.5 µM (inactive)
[13]
  GI50: 14.9 µM (inactive)
[14]
  GI50: 15.7 µM (inactive)
[20]
  GI50: 10.3 µM (inactive)
[15]
  GI50: 13.3 µM (inactive)
[16]
  GI50: 18.6 µM (inactive)

## Brc1nc2c3ccccc3ncn2c1Br
[17]
  GI50: 35.3 µM
[18]
  GI50: 30.1 µM (inactive)
[1]
  GI50: 43.6 µM (inactive)
[2]
  GI50: 0.316 µM (active)
[3]
  GI50: 31.3 µM (inactive)
[4]
  GI50: 34.2 µM (inactive)
[5]
  GI50: 23.4 µM (inactive)
[6]
  GI50: 36.7 µM (inactive)
[7]
  GI50: 44.6 µM (inactive)
[8]
  GI50: 32.1 µM (inactive)
[9]
  GI50: 30.8 µM (inactive)
[10]
  GI50: 33 µM (inactive)
[19]
  GI50: 36.9 µM (inactive)
[13]
  GI50: 82 µM (inactive)
[14]
  GI50: 27.5 µM (inactive)
[20]
  GI50: 25.3 µM (inactive)
[15]
  GI50: 19 µM (inactive)
[16]
  GI50: 56.4 µM (inactive)

## COc1cc(OC)c(OC)cc1/C=C\c1ccnc2ccccc12
[17]
  GI50: 0.437 µM
[18]
  GI50: 0.622 µM (active)
[1]
  GI50: 0.944 µM (active)
[2]
  GI50: 0.387 µM (active)
[3]
  GI50: 0.282 µM (active)
[4]
  GI50: 0.555 µM (active)
[5]
  GI50: 0.577 µM (active)
[6]
  GI50: 1.2 µM (inactive)
[7]
  GI50: 0.582 µM (active)
[8]
  GI50: 0.675 µM (active)
[9]
  GI50: 0.317 µM (active)
[10]
  GI50: 4.88 µM (inactive)
[11]
  GI50: 0.252 µM (active)
[12]
  GI50: 0.412 µM (active)
[19]
  GI50: 1.01 µM (active)
[13]
  GI50: 0.782 µM (active)
[14]
  GI50: 0.308 µM (active)
[20]
  GI50: 0.575 µM (active)
[15]
  GI50: 0.61 µM (active)
[16]
  GI50: 2.17 µM (inactive)

## CC1=C(C(=O)Nc2ccc(Cl)c(Cl)c2)C(c2ccc([N+](=O)[O-])cc2)C(C(=O)Nc2ccc(Cl)c(Cl)c2)=C(C)N1
[17]
  GI50: 2.6 µM
[18]
  GI50: 2.34 µM (inactive)
[1]
  GI50: 3.41 µM (inactive)
[2]
  GI50: 1.66 µM (inactive)
[3]
  GI50: 1.07 µM (active)
[4]
  GI50: 2.41 µM (inactive)
[5]
  GI50: 1.45 µM (inactive)
[6]
  GI50: 2.82 µM (inactive)
[7]
  GI50: 2.54 µM (inactive)
[8]
  GI50: 1.82 µM (inactive)
[9]
  GI50: 2.91 µM (inactive)
[10]
  GI50: 2.51 µM (inactive)
[19]
  GI50: 4.65 µM (inactive)
[13]
  GI50: 2.44 µM (inactive)
[14]
  GI50: 2.1 µM (inactive)
[20]
  GI50: 0.223 µM (active)
[15]
  GI50: 2.06 µM (inactive)
[16]
  GI50: 7.18 µM (inactive)

## Cc1cccc(C)c1NC(=O)CCc1nnc2s/c(=C\c3ccc(N(C)C)cc3)c(=O)n12
[17]
  GI50: > 100 µM
[18]
  GI50: > 100 µM (inactive)
[1]
  GI50: > 100 µM (inactive)
[2]
  GI50: 56.1 µM (inactive)
[3]
  GI50: 53.3 µM (inactive)
[4]
  GI50: > 100 µM (inactive)
[5]
  GI50: 66.2 µM (inactive)
[6]
  GI50: > 100 µM (inactive)
[7]
  GI50: > 100 µM (inactive)
[8]
  GI50: > 100 µM (inactive)
[9]
  GI50: > 100 µM (inactive)
[10]
  GI50: > 100 µM (inactive)
[19]
  GI50: > 100 µM (inactive)
[13]
  GI50: > 100 µM (inactive)
[14]
  GI50: > 100 µM (inactive)
[20]
  GI50: 53.3 µM (inactive)
[15]
  GI50: > 100 µM (inactive)
[16]
  GI50: > 100 µM (inactive)

## Cn1nc2ccc3nccc(N(CCO)CCO)c3c2n1
[17]
  GI50: > 100 µM
[18]
  GI50: > 100 µM (inactive)
[1]
  GI50: > 100 µM (inactive)
[2]
  GI50: > 100 µM (inactive)
[3]
  GI50: > 100 µM (inactive)
[4]
  GI50: > 100 µM (inactive)
[5]
  GI50: > 100 µM (inactive)
[6]
  GI50: > 100 µM (inactive)
[7]
  GI50: > 100 µM (inactive)
[8]
  GI50: > 100 µM (inactive)
[9]
  GI50: > 100 µM (inactive)
[10]
  GI50: > 100 µM (inactive)
[19]
  GI50: > 100 µM (inactive)
[13]
  GI50: > 100 µM (inactive)
[14]
  GI50: > 100 µM (inactive)
[20]
  GI50: > 100 µM (inactive)
[15]
  GI50: > 100 µM (inactive)
[16]
  GI50: > 100 µM (inactive)

## FC(F)(F)c1ccc2c(c1)N(CCCNCCN1CCOCC1)c1ccccc1S2
[17]
  GI50: 6.52 µM
[18]
  GI50: 13.3 µM (inactive)
[1]
  GI50: 16.2 µM (inactive)
[2]
  GI50: 11.4 µM (inactive)
[3]
  GI50: 2.99 µM (inactive)
[4]
  GI50: 11.2 µM (inactive)
[5]
  GI50: 7.19 µM (inactive)
[6]
  GI50: 11.6 µM (inactive)
[7]
  GI50: 12.4 µM (inactive)
[8]
  GI50: 11.6 µM (inactive)
[9]
  GI50: 16.8 µM (inactive)
[10]
  GI50: 10.9 µM (inactive)
[19]
  GI50: 16.1 µM (inactive)
[13]
  GI50: 5.2 µM (inactive)
[14]
  GI50: 3.66 µM (inactive)
[20]
  GI50: 4.74 µM (inactive)
[15]
  GI50: 8.85 µM (inactive)
[16]
  GI50: 12.7 µM (inactive)

## Cc1c(N(C)C)ccc2c(=O)c3cccc(CC(=O)O)c3oc12
[17]
  GI50: > 100 µM
[18]
  GI50: > 100 µM (inactive)
[1]
  GI50: > 100 µM (inactive)
[2]
  GI50: > 100 µM (inactive)
[3]
  GI50: > 100 µM (inactive)
[4]
  GI50: > 100 µM (inactive)
[5]
  GI50: > 100 µM (inactive)
[6]
  GI50: > 100 µM (inactive)
[7]
  GI50: > 100 µM (inactive)
[8]
  GI50: > 100 µM (inactive)
[9]
  GI50: > 100 µM (inactive)
[10]
  GI50: > 100 µM (inactive)
[11]
  GI50: > 100 µM (inactive)
[12]
  GI50: 65.2 µM (inactive)
[19]
  GI50: > 43.4 µM (inactive)
[13]
  GI50: > 100 µM (inactive)
[14]
  GI50: > 100 µM (inactive)
[20]
  GI50: > 100 µM (inactive)
[15]
  GI50: > 100 µM (inactive)
[16]
  GI50: > 100 µM (inactive)
